{"source": "patent EP1837033A1", "about": "“REMEDY FOR DIABETES CONTAINING Cdk5 INHIBITOR” (Tomizawa, Kazuhito, priority 2004, dated 2006)", "key": {"MIN6 cells [1]": {"test_system": "MIN6 cells", "test": "Insulin secretion of MIN6 cells in KRB, radioimmunoassay (Example 4)", "type": "cell-based, rat", "conditions": "for high-glucose-stimulated insulin secretion: preincubated 30 minutes, stimulated 1 hour with 16.7 mM glucose"}, "islets of Langerhans": {"test_system": "islets of Langerhans", "test": "Insulin secretion from isolated islets of Langerhans", "type": "cell-based, rats", "conditions": "for insulin secretion in islets of Langerhans (insulin secretion percentage): low glucose 3.3 mM, 200 nM glibenclamide, 10 µM olomoucine, fig. 5; for insulin secretion: 10 µM, Ringer solution with a high glucose concentration, fig. 4", "description": "In accordance with Goto et al. (Transplantaion, vol. 43, pp. 725 to 730, 1987), islets of Langerhans were isolated from 6-week-old male Wister rats. The rats were etherized so as to be subjected to thoracotomy. The common bile duct of each rat was removed and a collagenase solution (320 U/ml, Sigma) was slowly injected into the pancreas. Then, the swollen pancreas was excised. The collagenase-containing pancreas was digested at 37°C in a water bath for 30 minutes, followed by dispersion with the use of a pipet. Thereafter, islets of Langerhans were isolated based on the concentration gradient of a Ficoll solution (Amersham Pharmacia). The islets of Langerhans were incubated while being kept at 37°C for 30 minutes in a Ringer solution (119 mM sodium chloride, 4.74 mM potassium chloride, 1.19 mM sodium dihydrogen phosphate, 25 mM sodium bicarbonate, 10 mM HEPES, 2.54 mM calcium chloride, 1.19 mM magnesium chloride, and 0.2% BSA) saturated with a mixed gas of 95% O2 and 5% CO2.\n30 minutes after replacement, insulin contained in each stimulation solution was detected using an insulin detection kit (Ab Bead Insulin, Eiken Chemical Co., Ltd.) in accordance with protocols of the kit. The experiment was conducted for each concentration group (n = 6).\n30 minutes after replacement, insulin contained in each stimulation solution was using an insulin detection kit (Ab Bead Insulin, Eiken Chemical Co., Ltd.) in accordance with protocols for the kit.\nThen, controls (n = 6), samples A (n = 6), samples B (n = 6), and samples C (n = 6) were prepared. […] Further, islets of Langerhans were subjected to ultrasonication for cell disruption, and insulin contents of islets of Langerhans were detected using an insulin detection kit (Ab Bead Insulin, Eiken Chemical Co., Ltd.) in accordance with protocols for the kit in a manner similar to that used above.\nIn addition, the insulin secretion percentage was calculated by the following formula. Insulin secretion percentage; = (Amount of insulin secreted(μU/ml))/(Amount of insulin in islets of Langerhans(μU/ml)) × 100(%) [formula]"}, "[2]": {"test_system": "α1C subunit at Ser783 of L-VDCC", "test": "Phosphorylation of Ser783 of the L-VDCC α1C subunit in MIN6 cells (immunoprecipitation, Western blotting)", "type": "cell-based, rat", "conditions": "MIN6 cells treated with 50 µM olomoucine, fig. 8d", "protocol": "Recombinant cDNA encoding LoopII·III of a human α1C subunit of VDCC was subcloned into pGEX6P (Amersham Bioscience). Serine783 was mutated into alanine according to the manufacturer's instructions (Stratagene). Purified recombinant proteins were phosphorylated in vitro with the use of Cdk5/p35 (Upstate) by a conventional method (Tomizawa, K. et al. J. Cell. Biol. 163, 813-824 (2003)). […] The expression of the phosphorylated α1C subunit at Ser783 was measured using phosphorylation-specific antibodies obtained from serum of a rabbit to which CLARTApSPEKK peptide had been injected. The total amount of the subunits was detected by Western blotting analysis with the use of anti-α1C subunit antibodies (Chemicon).\nImmunoprecipitation of Cav1.2 was carried out. Phosphorylation of serine 783 was measured by Western blotting."}, "MIN6 cells [3]": {"test_system": "MIN6 cells", "test": "Ca2+ imaging (fura-2) in MIN6 cells", "type": "cell-based, rat", "conditions": "50 µM olomoucine", "protocol": "MIN6 cells were cultured in a DMEM containing 15% fetal bovine serum, 25 mM glucose, […] 2-mercaptoethanol, and 2 mM glutamine (Lilla, V. et al. Endocrinology 144, 1368-1379 (2003); and Minami, K. et al. Am. J. Physiol. Endocrinol. Metab. 279, 773-781 (2000)). The cells (1 × 10^6) were seeded on a 35-mm glass bottom dish (IWAKI, Tokyo, Japan), followed by cell proliferation for 48 hours. For Ca^2+ imaging, the cells were preincubated at 37°C for 2 hours in a modified Krebs-Ringer bicarbonate HEPES buffer solution (KRB: 125 mM Nacl, 4.74 mM KCl, 1 mM CaCl2, […] KH2PO4, 5 mM NaHCO3, 25 mM HEPES (pH 7.4), and 0.1% BSA) containing 2.8 mM glucose. […] The resulting solution was replaced with KRB containing 17.6 mM glucose or KRB containing 100 nM glibenclamide. The Ca^2+ level of the cells was using an Axiovert 200 inverted microscope (Carl Zeiss Microlmaging) by a dual excitation wavelength method (340/380).\nAfter washing, the cells were stimulated with 17.6 mM glucose (figs. 7a-1 and 7a-2) or 100 nM glibenclamide (figs. 7b-1 and 7b-2). Ca^2+ concentrations were presented as percentages of 340/380 nm fluorescent emission. The graphs (fgs. 7a-1 and 7b-1) show representative traces of changes in Ca^2+ concentration. The graphs (figs. 7a-2 and 7b-2) show the maximum Ca^2+ influxes. Data for each of 20 to 30 cells were collected after each experiment. The mean value of the total values was calculated and normalized every 3 to 4 experiments (*P < 0.01)."}, "MIN6 cells [4]": {"test_system": "MIN6 cells", "test": "Insulin secretion of MIN6 cells in Ringer solution (Example 3)", "type": "cell-based, rat", "conditions": "17.6 mM glucose, 20 µM, 2 hours, fig. 3", "protocol": "MIN6 cells capable of secreting insulin (provided by Professor Susumu Seino, Doctral Program in Advanced Biomedical Applications, Department of Cellular and Molecular Medicine, Graduate School of Medicine, Chiba University, 1-33, Yayoi-cho, Inage-ku, Chiba-shi, Chiba, Japan) were cultured in accordance with the method of Mae et al. (American Journal of Physiological Endocrinal Metabolism, 2000, vol. […], pp. 773 to 781). MIN6 cells (5 × 10^5) were in a DMEM medium (GIBCO) and on a 35-mm culture dish (Corning Incorporated), followed by culture for 2 days in an incubator (5% CO2, SANYO).\nAfter culture for 2 hours, insulin contained in medium was detected using an insulin detection kit (Ab Insulin, Eiken Chemical Co., Ltd.) in accordance with protocols for the kit."}, "L-VDCC": {"test_system": "L-VDCC", "test": "Whole-cell Ca2+ currents via VDCCs of MIN6 cells (electrophysiology)", "type": "cell-based, rat", "conditions": "50 µM olomoucine"}, "[5]": {"test_system": "diabetes mouse models KK-Ay", "test": "Hypoglycemic effects in diabetes mouse models KK-Ay", "type": "in vivo", "conditions": "KK-Ay mice, fig. 13", "protocol": "8-week-old ale KK-Ay mice (32 individuals, CLEA Japan, Inc.) were divided into groups (8 individuals each) with the proviso that there would be no differences among groups in terms of blood glucose levels, Hypoglycemic effects of roscovitine (LC Laboratories), which is a CDK5 inhibitor, were examined.\nIn order to prepare roscovitine at doses of 1 mg/kg, 10 mg/kg, and 100 mg/kg, a suspension (0.5% methylcellulose/physiological saline solution) was used. Then, subcutaneous administration of roscovitine was carried out once daily for 2 consecutive weeks. A solvent alone was administered to a control group. Blood glucose levels were measured one day before day 0 and on days 3, 7, 10, and 14 with the use of a blood glucose monitor (Free Style, NIPRO).\nIn fig. 13, the unit of the vertical axis is indicated by \"mg/dL.\" In fig. 14, the unit of the vertical axis is indicated by \"g.\""}, "Cdk5": {"target": "Cdk5 (Homo sapiens, UniProt Q00535)", "sequence (Q00535 whole entry, species assumed)": "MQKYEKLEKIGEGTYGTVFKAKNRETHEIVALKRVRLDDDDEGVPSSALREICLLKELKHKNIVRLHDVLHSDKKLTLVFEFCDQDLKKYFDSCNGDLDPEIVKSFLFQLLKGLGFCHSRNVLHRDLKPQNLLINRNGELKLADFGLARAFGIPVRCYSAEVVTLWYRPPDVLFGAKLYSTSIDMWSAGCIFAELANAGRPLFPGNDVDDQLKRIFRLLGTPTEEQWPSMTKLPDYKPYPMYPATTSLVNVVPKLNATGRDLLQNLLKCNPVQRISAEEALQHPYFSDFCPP", "sequence (Q15078 whole entry partner, species assumed)": "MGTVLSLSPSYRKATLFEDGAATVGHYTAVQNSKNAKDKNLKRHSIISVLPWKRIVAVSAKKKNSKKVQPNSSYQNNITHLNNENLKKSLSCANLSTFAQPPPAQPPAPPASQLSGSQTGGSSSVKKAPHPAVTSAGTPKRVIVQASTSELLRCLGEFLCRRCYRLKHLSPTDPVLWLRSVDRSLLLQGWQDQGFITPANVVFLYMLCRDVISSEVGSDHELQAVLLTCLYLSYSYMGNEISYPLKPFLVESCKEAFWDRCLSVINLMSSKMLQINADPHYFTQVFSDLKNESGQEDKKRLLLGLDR", "conditions": "cited from earlier work"}}}
{"compound": "CC1=NS(=O)(=O)c2cc(Cl)ccc2N1", "note": "[diazoxide]", "values": [{"measurement": "Olomoucine-dependant promotion of high-glucose-stimulated insulin secretion", "setting": "MIN6 cells [1]; 100 µM diazoxide, 50 µM olomoucine, 17.6 mM glucose, fig. 6g", "result": "completely suppressed"}]}
{"compound": "C=C[C@@]1(C)CC(=O)[C@]2(O)[C@@]3(C)[C@@H](O)CCC(C)(C)[C@@H]3[C@H](O)[C@H](OC(C)=O)[C@@]2(C)O1", "note": "[forskolin]", "values": [{"measurement": "forskolin-stimulated insulin secretion", "setting": "MIN6 cells [1]; 10 µM forskolin, 50 µM olomoucine, KRB 2.8 mM glucose, fig. 6h, unit not given", "result": "122.7 ± 9.3"}]}
{"compound": "COc1ccc(Cl)cc1C(=O)NCCc1ccc(S(=O)(=O)NC(=O)NC2CCCCC2)cc1", "note": "[glibenclamide]", "values": [{"measurement": "insulin secretion in islets of Langerhans (insulin secretion percentage)", "setting": "islets of Langerhans; 30 minutes", "result": "significant increase in insulin secretion"}, {"measurement": "insulin secretion", "setting": "MIN6 cells [1]; KRB high glucose 17.6 mM, fig. 6f", "result": "412.5 ± 35.7", "unit": "µg/h"}, {"measurement": "insulin secretion", "setting": "MIN6 cells [1]; KRB low glucose 2.8 mM, fig. 6e", "result": "116.3 ± 1.0", "unit": "µg/h"}]}
{"compound": "Cn1cnc2c(NCc3ccccc3)nc(NCCO)nc21", "note": "[olomoucine]", "values": [{"measurement": "insulin secretion", "setting": "islets of Langerhans", "result": "significantly promoted insulin secretion"}, {"measurement": "insulin secretion of islets of Langerhans", "setting": "islets of Langerhans; 3.3 mM glucose (low), olomoucine at different concentrations, 30 minutes, fig. 1", "result": "had no influence at all"}, {"measurement": "insulin secretion levels", "setting": "islets of Langerhans; 17.3 mM glucose (high), olomoucine at different concentrations, 30 minutes, versus absence of olomoucine, fig. 2", "result": "significantly increased"}, {"measurement": "secretion at low glucose levels", "setting": "islets of Langerhans; isolated islets of Langerhans, fig. 9a", "result": "did not influence"}, {"measurement": "insulin secretion in islets of Langerhans (insulin secretion percentage)", "setting": "islets of Langerhans; 30 minutes", "result": "did not influence insulin secretion"}, {"measurement": "glucose-stimulated insulin secretion in isolated islets of Langerhans", "setting": "islets of Langerhans; olomoucine at concentrations shown in fig. 9a", "result": "promoted glucose-stimulated insulin secretion in a dose-dependent manner"}, {"measurement": "phosphorylation of Ser783", "setting": "[2]", "result": "decrease in phosphorylation"}, {"measurement": "Ca2+ influxes in the absence of glucose and glibenclamide", "setting": "MIN6 cells [3]", "result": "did not influence"}, {"measurement": "Ca2+ influxes induced by glibenclamide", "setting": "MIN6 cells [3]; 100 nM glibenclamide, maximum Ca2+ influx normalized, figs. 7b-1 and 7b-2", "result": "129 ± 4.5", "unit": "%"}, {"measurement": "Ca2+ influxes induced by glucose", "setting": "MIN6 cells [3]; 17.6 mM glucose, maximum Ca2+ influx normalized, figs. 7a-1 and 7a-2", "result": "114.4 ± 2.1", "unit": "%"}, {"measurement": "insulin secretion of MIN6 cells", "setting": "MIN6 cells [4]", "result": "action of promoting insulin secretion"}, {"measurement": "Peak Ca2+ currents", "setting": "L-VDCC; depolarization to 10 mV, control cells -15.1 ± 1.67 A/F", "result": "-20.1 ± 1.59", "unit": "A/F"}, {"measurement": "inward Ca2+ currents", "setting": "L-VDCC; step pulses from -40 mV to +60 mV, fig. 7c", "result": "enhanced inward Ca^2+ currents"}, {"measurement": "insulin secretion under low glucose conditions", "setting": "MIN6 cells [1]; 2.8 mM glucose, 1 hour, fig. 6c", "result": "insulin secretion was not promoted"}, {"measurement": "insulin secretion induced by forskolin", "setting": "MIN6 cells [1]; effect of 50 µM olomoucine, 10 µM forskolin, 2.8 mM glucose, P > 0.05, fig. 6h", "result": "did not influence"}, {"measurement": "insulin secretion induced by glibenclamide", "setting": "MIN6 cells [1]; effect of olomoucine, low glucose 2.8 mM, fig. 6e", "result": "significantly promoted"}, {"measurement": "high-glucose-stimulated insulin secretion", "setting": "MIN6 cells [1]; fig. 6c", "result": "promoted high-glucose-stimulated insulin secretion in a dose-dependent manner"}]}
{"compound": "CC[C@H](CO)Nc1nc(NCc2ccccc2)c2ncn(C(C)C)c2n1", "note": "[roscovitine]", "values": [{"measurement": "blood glucose levels", "setting": "[5]; 1 mg/kg subcutaneous once daily for 2 consecutive weeks", "result": "obvious hypoglycemic effects were not observed"}, {"measurement": "blood glucose levels", "setting": "[5]; 10 mg/kg subcutaneous once daily for 2 consecutive weeks", "result": "obvious hypoglycemic effects were not observed"}, {"measurement": "blood glucose levels", "setting": "[5]; 100 mg/kg subcutaneous once daily for 2 consecutive weeks", "result": "statistically significant decreases"}, {"measurement": "insulin secretion of MIN6 cells", "setting": "MIN6 cells [4]", "result": "promoted"}, {"measurement": "high-glucose-stimulated insulin secretion", "setting": "MIN6 cells [1]; fig. 6c", "result": "also confirmed"}]}
{"compound": "iso-olomoucine", "values": [{"measurement": "insulin secretion", "setting": "islets of Langerhans", "result": "did not promote insulin secretion at all"}, {"measurement": "Cdk5 inhibitory effect", "setting": "Cdk5", "result": "does not have a Cdk5 inhibitory effect"}, {"measurement": "insulin secretion", "setting": "MIN6 cells [1]; 20 µM, fig. 6d", "result": "did not influence insulin secretion"}]}
